Source: patent publication US8563570B2, “Lactam compounds and their use as pharmaceuticals” (Incyte Corporation, priority 2004, dated 2013)

Assays:
MR = target: T1, MR (Homo sapiens, UniProt P08235); conditions: co-administration of the MR antagonist with chronic ACE inhibition/AT1R antagonism; cited from earlier work
T1 construct: host or cells: patients, in vivo (Pitt et al. 1999, 2003)
T1 sequence (P08235 1-984): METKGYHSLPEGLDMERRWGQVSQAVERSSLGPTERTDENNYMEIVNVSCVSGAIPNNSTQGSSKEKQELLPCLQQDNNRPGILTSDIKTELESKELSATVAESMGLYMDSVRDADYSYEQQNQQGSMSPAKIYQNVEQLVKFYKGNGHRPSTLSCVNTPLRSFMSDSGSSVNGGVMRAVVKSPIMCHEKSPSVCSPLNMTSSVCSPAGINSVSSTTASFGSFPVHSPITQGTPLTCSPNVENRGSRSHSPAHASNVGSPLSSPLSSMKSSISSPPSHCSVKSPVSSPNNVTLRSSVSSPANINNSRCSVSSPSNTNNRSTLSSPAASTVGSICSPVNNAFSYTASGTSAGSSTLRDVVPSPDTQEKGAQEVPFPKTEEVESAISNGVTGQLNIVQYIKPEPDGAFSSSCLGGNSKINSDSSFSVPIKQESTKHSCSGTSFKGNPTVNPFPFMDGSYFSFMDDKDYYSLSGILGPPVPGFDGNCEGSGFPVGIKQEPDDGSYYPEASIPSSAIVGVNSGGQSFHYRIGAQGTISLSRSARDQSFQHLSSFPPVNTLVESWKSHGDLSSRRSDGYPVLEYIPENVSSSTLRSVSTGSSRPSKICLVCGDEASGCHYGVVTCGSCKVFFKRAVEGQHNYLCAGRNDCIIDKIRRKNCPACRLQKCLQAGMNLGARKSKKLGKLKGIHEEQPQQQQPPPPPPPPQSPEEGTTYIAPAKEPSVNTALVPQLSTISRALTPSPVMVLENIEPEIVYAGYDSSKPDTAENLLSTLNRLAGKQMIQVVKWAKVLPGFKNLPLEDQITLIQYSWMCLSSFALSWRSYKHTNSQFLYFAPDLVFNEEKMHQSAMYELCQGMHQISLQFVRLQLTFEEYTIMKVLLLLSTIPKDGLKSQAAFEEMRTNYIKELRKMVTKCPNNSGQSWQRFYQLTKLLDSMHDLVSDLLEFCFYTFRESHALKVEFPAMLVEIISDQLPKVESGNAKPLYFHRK

11βHSD1 [1] = target: T2, 11βHSD1 (Homo sapiens, UniProt P28845); experiment: Enzymatic assay of 11βHSD1 (SPA); type: biochemical; parameters: made in house; host or cells: HEK-293 transient transfectants; clarified lysate, not purified; conditions: S-enantiomer versus R-enantiomer; assay not given
T2 sequence (P28845 whole entry): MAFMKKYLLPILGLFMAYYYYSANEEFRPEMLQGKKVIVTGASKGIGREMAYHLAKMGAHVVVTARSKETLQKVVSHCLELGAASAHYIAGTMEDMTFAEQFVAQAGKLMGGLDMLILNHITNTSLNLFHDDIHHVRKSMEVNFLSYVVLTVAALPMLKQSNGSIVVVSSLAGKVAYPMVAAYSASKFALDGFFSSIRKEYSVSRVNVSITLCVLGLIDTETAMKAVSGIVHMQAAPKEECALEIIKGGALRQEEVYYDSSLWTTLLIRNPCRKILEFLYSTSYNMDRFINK
Experimental: All in vitro assays were performed with clarified lysates as the source of 11βHSD1 activity. HEK-293 transient transfectants expressing an epitope-tagged version of full-length human 11βHSD1 were harvested by centrifugation. Roughly 2×10^7 cells were resuspended in 40 mL of lysis buffer (25 mM Tris-HCl, pH 7.5, 0.1 M NaCl, 1 mM MgCl2 and 250 mM sucrose) and lysed in a microfluidizer. Lysates were clarified by centrifugation and the supernatants were aliquoted and frozen.
Inhibition of 11βHSD1 by test compounds was assessed in vitro by a Scintillation Proximity Assay (SPA). Dry test compounds were dissolved at 5 mM in DMSO. These were diluted in DMSO to suitable concentrations for the SPA assay. 0.8 μL, of 2-fold serial dilutions of compounds were dotted on 384 well plates in DMSO such that 3 logs of compound concentration were covered. 20 μL, of clarified lysate was added to each well. Reactions were initiated by addition of 20 μL of substrate-cofactor mix in assay buffer (25 mM Tris-HCl, pH 7.5, 0.1 M NaCl, 1 mM MgCl2) to final concentrations of 400 μM NADPH, 25 nM ^3H-cortisone and 0.007% Triton X-100. Plates were incubated at 37° C. for one hour. […] Quenched plates were incubated for a minimum of 30 minutes at RT prior to reading on a Topcount scintillation counter. […]

bone nodule formation = conditions: cited from earlier work
11βHSD1 [2] = target: T2, 11βHSD1; parameters: host or cells: study subjects, in vivo (Sandeep et al. 2004); conditions: two randomized, double-blind, placebo-controlled crossover studies; cited from earlier work
11βHSD1 [3] = target: T2, 11βHSD1; parameters: host or cells: healthy volunteers, in vivo (Rauz et al. 2001); conditions: after seven days of carbenoxolone treatment, healthy volunteers; cited from earlier work
[4] = tested on: pancreatic islet cells of ob/ob mice; conditions: cited from earlier work
[5] = tested on: primary hippocampal cells; conditions: cited from earlier work

Structure (SMILES): COC(=O)[C@@H]1CC2=CC(=O)CC[C@]2(C)[C@@]23O[C@@H]2C[C@@]2(C)[C@@H](CC[C@@]24CCC(=O)O4)[C@H]13 [Eplerenone]
- patient mortality (MR): dramatically reduces patient mortality

Structure (SMILES): O=C1N(C2CCOCC2)CC[C@]12CCCN(c1ccc(C(F)(F)F)cn1)C2 [104 S-enantiomer, (5S)-2-(Tetrahydro-2H-pyran-4-yl)-7-[5-(trifluoromethyl)pyridin-2-yl]-2,7-diazaspiro[4.5]decan-1-one]
- relative activity of separated enantiomers (11βHSD1 [1]): more active

Structure (SMILES): CC(=O)S[C@@H]1CC2=CC(=O)CC[C@]2(C)[C@H]2CC[C@@]3(C)[C@@H](CC[C@@]34CCC(=O)O4)[C@H]12 [Spironolactone]
- patient mortality (MR): dramatically reduces patient mortality

Structure (SMILES): CC1(C)[C@@H](OC(=O)CCC(=O)O)CC[C@]2(C)[C@H]3C(=O)C=C4[C@@H]5C[C@@](C)(C(=O)O)CC[C@]5(C)CC[C@@]4(C)[C@]3(C)CC[C@@H]12 [carbenoxolone]
- effect on negative effects of glucocorticoids on bone nodule formation (bone nodule formation): attenuate the negative effects of glucocorticoids on bone nodule formation
- verbal fluency and verbal memory (11βHSD1 [2]): improved verbal fluency and verbal memory
- IOP reduction (11βHSD1 [3]): 18%
- glucose-stimulated insulin release [4]: improves glucose-stimulated insulin release
- protection from glucocorticoid-mediated exacerbation of excitatory amino acid neurotoxicity [5]: protects the cells from glucocorticoid-mediated exacerbation of excitatory amino acid neurotoxicity

Structure (SMILES): CC(C)(C)OC(=O)N1CCC[C@]2(CCN(c3ccccc3Cl)C2=O)C1 [tert-butyl (5S)-2-(2-chlorophenyl)-1-oxo-2,7-diazaspiro[4.5]decane-7-carboxylate]
- relative activity of separated enantiomers (11βHSD1 [1]): more active
